The target in data set [1] is human integrin αvβ5 (Homo sapiens, UniProt P06756+P18084). As to the kind of experiment: Evaluation of integrin binding property (surface plasmon resonance, Biacore 3000, immobilized cyclic peptide). The method in brief:
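Human αvβ5 (30-1,000 nM) flowed for 10 min at 25 °C over immobilized cyclic peptide in 20 mM HEPES, 150 mM NaCl, 5 mM MgCl2, pH 7.4, followed by 30 min running buffer and 0.5 M EDTA regeneration. Dissociation constant from peptide minus unimmobilized channel, scored into standard grades.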
In general terms: In SPR one partner is held on a chip, and binding of the other changes the refractive index at the surface.

A short description of data set [2]: Evaluation of molecule stability (alkali treatment, residual rate by LC/MS). In kind it is physicochemical. As to conditions: for Performance evaluation: Stability (residual rate of cyclic peptide after alkali treatment): 500 μM peptide aqueous solution plus equivalent of 1 M sodium hydroxide, 15° C., 3 hours, LC/MS peak area; for Stability (molecule stability, residual rate of the cyclic peptide rank): alkali treatment, residual rate by LC/MS. An outline of the steps: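 Stability read as percent of summed LC/MS peak area remaining versus untreated peptide (C18, 45 °C, 10 mM ammonium formate pH 3, ESI positive/negative). Treatment: 500 μM peptide in water plus an equivalent of 1 M NaOH, 15 °C for 3 hours.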

Where [3] appears, read: SPR, 25° C., HEPES buffer with 5 mM magnesium chloride, integrin 30-1,000 nM, read-out: Performance evaluation: Binding activity (dissociation constant between the cyclic peptide and human integrin αvβ5).
The mark [4] stands for this setting: surface plasmon resonance, immobilized cyclic peptide, human integrin αvβ5, read-out: Binding activity (integrin binding property, dissociation constant rank).

Like-named read-outs stand apart in the source and are kept apart here. Starred links: 1 amine or outer side, 2 acyl side, 3 side chain; linkers in the order of their positions; H or OH if unused. Positions of bridges follow the written chain, without caps; N, C: chain ends. Non-standard residues stand in square brackets, D forms with d. Residues, ends and D or L forms follow the SMILES beside them. Pen = CC(C)(S)[C@H](N)C(=O)O; hCys = N[C@@H](CCS)C(=O)O; Dab = NCC[C@H](N)C(=O)O; X1 = O=C(C[*:2])[*:1]; X2 = O=C(C[*:1])[*:2]

Chain of human integrin αvβ5 (P06756 31-1048): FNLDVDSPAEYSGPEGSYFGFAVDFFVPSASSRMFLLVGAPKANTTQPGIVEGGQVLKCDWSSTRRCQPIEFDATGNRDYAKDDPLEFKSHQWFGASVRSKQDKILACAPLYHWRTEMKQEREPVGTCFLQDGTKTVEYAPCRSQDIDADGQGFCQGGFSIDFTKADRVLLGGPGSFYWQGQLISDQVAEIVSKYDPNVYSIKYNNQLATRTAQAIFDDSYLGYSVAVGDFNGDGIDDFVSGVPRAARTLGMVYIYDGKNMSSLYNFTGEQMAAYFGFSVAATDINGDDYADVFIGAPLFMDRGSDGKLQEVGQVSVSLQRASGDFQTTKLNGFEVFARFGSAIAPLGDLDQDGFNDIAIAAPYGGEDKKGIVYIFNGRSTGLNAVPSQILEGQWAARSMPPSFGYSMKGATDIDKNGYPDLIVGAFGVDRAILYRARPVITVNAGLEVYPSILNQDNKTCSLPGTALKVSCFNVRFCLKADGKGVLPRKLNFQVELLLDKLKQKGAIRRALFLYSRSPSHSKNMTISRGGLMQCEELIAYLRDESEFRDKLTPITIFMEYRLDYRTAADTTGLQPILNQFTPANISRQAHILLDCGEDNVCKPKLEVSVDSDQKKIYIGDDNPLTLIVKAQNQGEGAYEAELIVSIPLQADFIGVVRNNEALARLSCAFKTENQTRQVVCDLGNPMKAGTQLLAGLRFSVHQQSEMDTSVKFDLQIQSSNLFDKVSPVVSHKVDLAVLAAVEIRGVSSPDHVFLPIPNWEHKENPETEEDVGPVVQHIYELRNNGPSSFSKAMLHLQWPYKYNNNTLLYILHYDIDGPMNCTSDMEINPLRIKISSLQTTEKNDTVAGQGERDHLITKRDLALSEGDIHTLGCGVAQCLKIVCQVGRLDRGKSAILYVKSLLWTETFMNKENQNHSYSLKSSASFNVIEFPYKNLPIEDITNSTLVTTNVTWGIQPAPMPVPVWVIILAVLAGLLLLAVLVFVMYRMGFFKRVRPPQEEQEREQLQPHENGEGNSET
Chain of human integrin αvβ5 (P18084 24-799): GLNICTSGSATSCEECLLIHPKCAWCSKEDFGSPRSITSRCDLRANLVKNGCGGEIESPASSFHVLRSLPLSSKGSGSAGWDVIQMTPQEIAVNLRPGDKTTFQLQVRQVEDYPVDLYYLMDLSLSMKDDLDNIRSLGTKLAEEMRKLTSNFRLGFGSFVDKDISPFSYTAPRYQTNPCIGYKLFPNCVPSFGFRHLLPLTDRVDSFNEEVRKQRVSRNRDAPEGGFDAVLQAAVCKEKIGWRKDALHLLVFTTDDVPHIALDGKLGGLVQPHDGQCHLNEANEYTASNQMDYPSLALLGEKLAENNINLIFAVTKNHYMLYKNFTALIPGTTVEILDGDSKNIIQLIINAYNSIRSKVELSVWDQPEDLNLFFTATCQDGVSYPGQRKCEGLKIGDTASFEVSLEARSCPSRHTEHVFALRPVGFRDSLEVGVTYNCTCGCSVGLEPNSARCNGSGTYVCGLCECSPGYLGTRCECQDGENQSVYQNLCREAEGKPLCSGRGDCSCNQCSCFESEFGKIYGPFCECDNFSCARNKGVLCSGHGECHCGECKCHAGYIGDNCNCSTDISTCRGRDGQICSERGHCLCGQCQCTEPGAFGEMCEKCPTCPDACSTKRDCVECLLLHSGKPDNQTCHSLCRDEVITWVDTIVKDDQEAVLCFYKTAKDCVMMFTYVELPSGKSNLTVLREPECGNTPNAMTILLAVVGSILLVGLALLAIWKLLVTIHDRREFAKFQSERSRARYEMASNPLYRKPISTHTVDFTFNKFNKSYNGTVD

In the case of `CC[C@H](C)[C@@H]1NC(=O)[C@@H](NC(=O)[C@H](CCCCN)NC(=O)[C@H](CCCCN)NC(=O)[C@@H](N)CCCCN)CCSCC(=O)NCC[C@@H](C(=O)O)NC(=O)[C@H](C)NC(=O)[C@H](Cc2ccccc2)NC(=O)[C@H]([C@@H](C)O)NC(=O)[C@H](CC(=O)O)NC(=O)CNC(=O)[C@H](CCCNC(=N)N)NC(=O)[C@@H]2CCCN2C1=O` [Cyclic peptide 62, KKK-(Hcy)-IPRGDTFA(Dab(acetyl))] (H-KKK[hCys]IPRGDTFA[Dab]-OH; linker 4-13 via X2), the Kd in data set [1] (setting [3]) is under 50 nM. In addition, in data set [2], the “Performance evaluation: Stability (residual rate of cyclic peptide after alkali treatment)” value is given as “A (The residual rate of the cyclic peptide is 70% or more.)”.
In the case of `CC[C@H](C)[C@@H]1NC(=O)[C@@H](NC(=O)CNC(=O)[C@H](CCCCN)NC(=O)[C@H](CCCCN)NC(=O)[C@@H](N)CCCCN)C(C)(C)SCC(=O)NCC[C@@H](C(=O)N[C@@H](C)C(=O)O)NC(=O)[C@H](CCCNC(=N)N)NC(=O)[C@H](Cc2ccccc2)NC(=O)[C@H]([C@@H](C)O)NC(=O)[C@H](CC(=O)O)NC(=O)CNC(=O)[C@H](CCCNC(=N)N)NC(=O)[C@@H]2CCCN2C1=O` [Cyclic peptide 129, KKKG-(Pen)-IPRGDTFR(Dab(acetyl))A] (H-KKKG[Pen]IPRGDTFR[Dab]A-OH; linker 5-14 via X2), the Kd in data set [1] (setting [4]) fell in the range of 50 to 100 nM. Moreover, the “Stability (molecule stability, residual rate of the cyclic peptide rank)” value in data set [2] was “A (The residual rate of the cyclic peptide is 70% or more.)”.
Regarding `CC(C)[C@@H]1NC(=O)[C@@H](NC(=O)[C@H](CCCCN)NC(=O)[C@H](CCCCN)NC(=O)[C@@H](N)CCCCN)CCSCC(=O)NCC[C@@H](C(=O)O)NC(=O)[C@H](Cc2ccccc2)NC(=O)[C@H](CC(N)=O)NC(=O)[C@H](CC(=O)O)NC(=O)CNC(=O)[C@H](CCCNC(=N)N)NC(=O)[C@@H]2CCCN2C1=O` [Cyclic peptide 14, KKK-(Hcy)-VPRGDNF(Dab(acetyl))] (H-KKK[hCys]VPRGDNF[Dab]-OH; linker 4-12 via X2), the Kd in data set [1] was under 50 nM. Further, the “Performance evaluation: Stability (residual rate of cyclic peptide after alkali treatment)” value in data set [2] is reported as “A (The residual rate of the cyclic peptide is 70% or more.)”.
With `CC[C@H](C)[C@@H]1NC(=O)[C@@H](NC(=O)CNC(=O)[C@H](CCCCN)NC(=O)[C@H](CCCCN)NC(=O)[C@@H](N)CCCCN)CCNC(=O)CSCC[C@@H](C(=O)N[C@@H](C)C(=O)O)NC(=O)[C@H](CCCNC(=N)N)NC(=O)[C@H](Cc2ccccc2)NC(=O)[C@H]([C@@H](C)O)NC(=O)[C@H](CC(=O)O)NC(=O)CNC(=O)[C@H](CCCNC(=N)N)NC(=O)[C@@H]2CCCN2C1=O` [Cyclic peptide 118, KKKG(Dab(acetyl))IPRGDTFR-(Hcy)-A] (H-KKKG[Dab]IPRGDTFR[hCys]A-OH; linker 5-14 via X1), the Kd in data set [1] (setting [4]) is under 50 nM. Moreover, the “Stability (molecule stability, residual rate of the cyclic peptide rank)” value in data set [2] is on record as “A (The residual rate of the cyclic peptide is 70% or more.)”.
Taken in the same sequence, the figures for `C[C@@H]1NC(=O)[C@H](Cc2ccccc2)NC(=O)[C@H]([C@@H](C)O)NC(=O)[C@H](CC(=O)O)NC(=O)CNC(=O)[C@H](CCCNC(=N)N)NC(=O)[C@@H]2CCCN2C(=O)[C@H](Cc2ccc(O)cc2)NC(=O)[C@@H](NC(=O)[C@H](CCCCN)NC(=O)[C@H](CCCCN)NC(=O)[C@@H](N)CCCCN)CCSCC(=O)NCC[C@@H](C(=O)O)NC1=O` [Cyclic peptide 148, KKK-(Hcy)-YPRGDTFA(Dab(acetyl))] (H-KKK[hCys]YPRGDTFA[Dab]-OH; linker 4-13 via X2) were under 50 nM and “A (The residual rate of the cyclic peptide is 70% or more.)”.
Take `C[C@H](NC(=O)[C@@H]1CCNC(=O)CSCC[C@H](NC(=O)[C@H](C)NC(=O)[C@H](CCCCN)NC(=O)[C@H](CCCCN)NC(=O)[C@@H](N)CCCCN)C(=O)N[C@@H]([C@@H](C)O)C(=O)N2CCC[C@H]2C(=O)N[C@@H](CCCNC(=N)N)C(=O)NCC(=O)N[C@@H](CC(=O)O)C(=O)N[C@@H]([C@@H](C)O)C(=O)N[C@@H](Cc2ccccc2)C(=O)N[C@@H](C)C(=O)N1)C(=O)O` [Cyclic peptide 160, KKKA-(Hcy)-TPRGDTFA(Dab(acetyl))A] (H-KKKA[hCys]TPRGDTFA[Dab]A-OH; linker 5-14 via X2): in data set [1] (setting [4]), the Kd is under 50 nM. Further, in data set [2], the “Stability (molecule stability, residual rate of the cyclic peptide rank)” value is on record as “A (The residual rate of the cyclic peptide is 70% or more.)”.
For the molecule `CC(C)[C@@H]1NC(=O)[C@@H](NC(=O)[C@H](C)NC(=O)[C@H](CCCCN)NC(=O)[C@H](CCCCN)NC(=O)[C@H](CCCCN)NC(=O)[C@H](CCCCN)NC(=O)[C@H](CCCCN)NC(=O)[C@@H](N)CCCCN)CCSCC(=O)NCC[C@@H](C(=O)N[C@@H](C)C(=O)O)NC(=O)[C@H](C)NC(=O)[C@H](Cc2ccccc2)NC(=O)[C@H]([C@@H](C)O)NC(=O)[C@H](CC(=O)O)NC(=O)CNC(=O)[C@H](CCCNC(=N)N)NC(=O)[C@@H]2CCCN2C1=O` [Cyclic peptide 112, KKKKKKA-(Hcy)-VPRGDTFA(Dab(acetyl))A] (H-KKKKKKA[hCys]VPRGDTFA[Dab]A-OH; linker 8-17 via X2), the Kd in data set [1] (setting [4]) was under 50 nM. For the same molecule, the “Stability (molecule stability, residual rate of the cyclic peptide rank)” value in data set [2] is given as “A (The residual rate of the cyclic peptide is 70% or more.)”.
In the case of `CC[C@H](C)[C@@H]1NC(=O)[C@@H](NC(=O)[C@H](C)N)CCSCC(=O)NCC[C@@H](C(=O)N[C@@H](C)C(=O)N[C@@H](CCCCN)C(=O)N[C@@H](CCCCN)C(=O)N[C@@H](CCCCN)C(=O)O)NC(=O)[C@H](C)NC(=O)[C@H](Cc2ccccc2)NC(=O)[C@H](CO)NC(=O)[C@H](CC(=O)O)NC(=O)CNC(=O)[C@H](CCCNC(=N)N)NC(=O)[C@@H]2CCCN2C1=O` [Cyclic peptide 100, A-(Hcy)-IPRGDSFA(Dab(acetyl))AKKK] (H-A[hCys]IPRGDSFA[Dab]AKKK-OH; linker 2-11 via X2), the Kd in data set [1] (setting [3]) was under 50 nM. The “Performance evaluation: Stability (residual rate of cyclic peptide after alkali treatment)” value in data set [2] was “A (The residual rate of the cyclic peptide is 70% or more.)”.
Taken in the same sequence, the figures for `CC[C@H](C)[C@@H]1NC(=O)[C@@H](NC(=O)[C@H](CCCCN)NC(=O)[C@H](CCCCN)NC(=O)[C@@H](N)CCCCN)CCSCC(=O)NCC[C@@H](C(=O)N[C@@H](C)C(=O)O)NC(=O)[C@H](CCCNC(=N)N)NC(=O)[C@H](Cc2ccccc2)NC(=O)[C@H](CO)NC(=O)[C@H](CC(=O)O)NC(=O)CNC(=O)[C@H](CCCNC(=N)N)NC(=O)[C@@H]2CCCN2C1=O` [Cyclic peptide 25, KKK-(Hcy)-IPRGDSFR(Dab(acetyl))A] (H-KKK[hCys]IPRGDSFR[Dab]A-OH; linker 4-13 via X2) were 50 to 100 nM and “A (The residual rate of the cyclic peptide is 70% or more.)”.
In the same order, the values of `CC[C@H](C)[C@@H]1NC(=O)[C@@H](NC(=O)[C@H](C)NC(=O)[C@H](CCCCN)NC(=O)[C@H](CCCCN)NC(=O)[C@@H](N)CCCCN)CCSCC(=O)NCC[C@@H](C(=O)N[C@@H](C)C(=O)O)NC(=O)[C@H](CCCNC(=N)N)NC(=O)[C@H](Cc2ccccc2)NC(=O)[C@H](C(C)C)NC(=O)[C@H](CC(=O)O)NC(=O)CNC(=O)[C@H](CCCNC(=N)N)NC(=O)[C@@H]2CCCN2C1=O` [Cyclic peptide 78, KKKA-(Hcy)-IPRGDVFR(Dab(acetyl))A] (H-KKKA[hCys]IPRGDVFR[Dab]A-OH; linker 5-14 via X2) are under 50 nM and “A (The residual rate of the cyclic peptide is 70% or more.)”.
In the same order, the values of `C[C@H](NC(=O)[C@H](CCCCN)NC(=O)[C@H](CCCCN)NC(=O)[C@@H](N)CCCCN)C(=O)N[C@H]1CCSCC(=O)NCC[C@@H](C(=O)N[C@@H](CCC(=O)O)C(=O)O)NC(=O)[C@H](CCCNC(=N)N)NC(=O)[C@H](Cc2ccc(O)cc2)NC(=O)[C@H](CC(N)=O)NC(=O)[C@H](CC(=O)O)NC(=O)CNC(=O)[C@H](CCCNC(=N)N)NC(=O)[C@@H]2CCCN2C(=O)[C@H](CCC(=O)O)NC1=O` [Cyclic peptide 43, KKKA-(Hcy)-EPRGDNYR(Dab(acetyl))E] (H-KKKA[hCys]EPRGDNYR[Dab]E-OH; linker 5-14 via X2) are 50 to 100 nM and “A (The residual rate of the cyclic peptide is 70% or more.)”.
`CC[C@H](C)[C@@H]1NC(=O)[C@@H](NC(=O)[C@H](CCCCN)NC(=O)[C@H](CCCCN)NC(=O)[C@@H](N)CCCCN)CCSCC(=O)NCC[C@@H](C(=O)O)NC(=O)[C@H](Cc2ccccc2)NC(=O)[C@H](C(C)C)NC(=O)[C@H](CC(=O)O)NC(=O)CNC(=O)[C@H](CCCNC(=N)N)NC(=O)[C@@H]2CCCN2C1=O` [Cyclic peptide 65, KKK-(Hcy)-IPRGDVF(Dab(acetyl))] (H-KKK[hCys]IPRGDVF[Dab]-OH; linker 4-12 via X2): the Kd in data set [1] (setting [3]) was in the range of 50 to 100 nM. Also, the “Performance evaluation: Stability (residual rate of cyclic peptide after alkali treatment)” value in data set [2] is reported as “A (The residual rate of the cyclic peptide is 70% or more.)”.
With `CC[C@H](C)[C@@H]1NC(=O)[C@@H](NC(=O)[C@H](CCCCN)NC(=O)[C@H](CCCCN)NC(=O)[C@@H](N)CCCCN)CCSCC(=O)NCC[C@@H](C(=O)N[C@@H](C)C(=O)O)NC(=O)[C@H](C)NC(=O)[C@H](Cc2ccccc2)NC(=O)[C@H](CO)NC(=O)[C@H](CC(=O)O)NC(=O)CNC(=O)[C@H](CCCNC(=N)N)NC(=O)[C@@H]2CCCN2C1=O` [Cyclic peptide 163, KKK-(Hcy)-IPRGDSFA(Dab(acetyl))A] (H-KKK[hCys]IPRGDSFA[Dab]A-OH; linker 4-13 via X2), the Kd in data set [1] (setting [4]) was under 50 nM. For the same molecule, the “Stability (molecule stability, residual rate of the cyclic peptide rank)” value in data set [2] was “A (The residual rate of the cyclic peptide is 70% or more.)”.

The values are drawn from patent publication US12673975B2, “Cyclic peptide, cell scaffold material, cell separating material, and medium” (FUJIFILM Corporation, priority 2019, dated 2026).
